Source: publication PMC5421785, “Citrullination only infrequently impacts peptide binding to HLA class II MHC” (PLoS ONE, 2017)
Where two headings read alike, the source gives them in different places. Square brackets hold non-standard residues; d marks the D form. Ends that are not written are not given here. Peptide text beside a SMILES is read from it. Cit = NC(=O)NCCC[C@H](N)C(=O)O

Tests used:
HLA-DRB1*01:01 = biological target: T1, HLA-DRB1*01:01 (Homo sapiens, UniProt P01903+P01911, A100R/D57E/F55L/F60I/F76Y/I96L/L162R/M171V/P40L/Q125E/R42F/V115G/Y59C); experiment: HLA class II peptide binding, inhibition of radiolabeled peptide binding to purified MHC
T1 construct: EBV transformed homozygous cell lines were used as sources of MHC molecules; endogenous in cells; host or cells: EBV transformed homozygous cell lines

HLA-DRB1*04:01 = biological target: T2, HLA-DRB1*04:01 (Homo sapiens, UniProt P01903+P01911, A100K/A169T/F76Y/I96L/K127E/L162R/M171V/N62H/P40V/Q125Y/R42H/S133A/S149N/S66Y/V115G/V209L/W38E); experiment: as above
T2 construct: EBV transformed homozygous cell lines were used as sources of MHC molecules; endogenous in cells; host or cells: EBV transformed homozygous cell lines

[1] = citrullinated 15-mer peptide (X = citrulline), purified HLA-DRB1*01:01, read-out: DRB1*01:01 binding capacity, Cit peptide (IC50 nM)
[2] = citrullinated 15-mer peptide (X = citrulline), purified HLA-DRB1*04:01, read-out: DRB1*04:01 binding capacity, Cit peptide (IC50 nM)
[3] = citrullinated 15-mer (X), purified MHC, inhibition of radiolabeled peptide binding, dash = IC50 >40,000 nM, read-out: DRB1*01:01 binding capacity, Cit peptide (IC50 nM)
[4] = citrullinated 15-mer (X), purified MHC, inhibition of radiolabeled peptide binding, dash = IC50 >40,000 nM, read-out: DRB1*04:01 binding capacity, Cit peptide (IC50 nM)
[5] = read-out: DRB1*01:01 binding capacity, WT peptide (IC50 nM)
[6] = read-out: DRB1*04:01 binding capacity, WT peptide (IC50 nM)

| IC50 (HLA-DRB1*01:01; [1]) [nM] | IC50 (HLA-DRB1*04:01; [2]) [nM] | Compound | also measured |
| --- | --- | --- | --- |
| 5960 | 1160 | CSCC[C@H](NC(=O)[C@H](CCC(=O)O)NC(=O)[C@H](CCCNC(=N)N)NC(=O)[C@H](CCSC)NC(=O)[C@H](CCC(N)=O)NC(=O)[C@H](CCCNC(N)=O)NC(=O)[C@@H](N)CCC(=O)O)C(=O)N[C@@H](CCC(=O)O)C(=O)N[C@@H](CCC(=O)O)C(=O)N[C@@H](CC(N)=O)C(=O)N[C@@H](Cc1ccccc1)C(=O)N[C@@H](C)C(=O)N[C@H](C(=O)N[C@@H](CCC(=O)O)C(=O)N[C@@H](C)C(=O)O)C(C)C [EXQMREMEENFAVEA] (H-E[Cit]QMREMEENFAVEA-OH) |  |
| 6470 | > 40000 | CC(C)C[C@H](NC(=O)CNC(=O)[C@@H]1CCCN1C(=O)[C@H](Cc1ccccc1)NC(=O)CNC(=O)[C@H](CCCNC(=N)N)NC(=O)[C@H](CCC(=O)O)NC(=O)CNC(=O)[C@H](CCCNC(N)=O)NC(=O)[C@H](CCC(N)=O)NC(=O)CNC(=O)[C@@H]1CCCN1)C(=O)N1CCC[C@H]1C(=O)NCC(=O)N1CCC[C@H]1C(=O)O [PGQXGERGFPGLPGP] (H-PGQ[Cit]GERGFPGLPGP-OH) |  |
|  |  | CC(C)C[C@H](NC(=O)[C@H](CO)NC(=O)[C@H](CCCNC(N)=O)NC(=O)[C@H](CO)NC(=O)[C@@H](NC(=O)[C@H](CO)NC(=O)[C@@H]1CCCN1)[C@@H](C)O)C(=O)N[C@@H](Cc1ccc(O)cc1)C(=O)N[C@@H](C)C(=O)N[C@@H](CO)C(=O)N[C@@H](CO)C(=O)N1CCC[C@H]1C(=O)NCC(=O)NCC(=O)N[C@H](C(=O)O)C(C)C [PSTSXSLYASSPGGV] | IC50 (HLA-DRB1*01:01; [3]): 524 nM; IC50 (HLA-DRB1*04:01; [4]): 2520 nM |
|  |  | CC(C)C[C@H](NC(=O)[C@H](C)NC(=O)[C@H](CO)NC(=O)CNC(=O)[C@H](CC(C)C)NC(=O)[C@H](CO)NC(=O)[C@H](Cc1ccc(O)cc1)NC(=O)[C@@H](NC(=O)[C@H](CCCNC(=N)N)NC(=O)[C@@H](NC(=O)[C@H](CO)NC(=O)[C@@H](NC(=O)[C@@H](NC(=O)[C@@H](N)C(C)C)[C@@H](C)O)[C@@H](C)O)[C@@H](C)O)[C@@H](C)O)C(=O)N[C@@H](CCCNC(N)=O)C(=O)O [VTTSTRTYSLGSALX] (H-VTTSTRTYSLGSAL[Cit]-OH) | IC50 (HLA-DRB1*01:01; [3]): 9.6 nM; IC50 (HLA-DRB1*04:01; [4]): 847 nM |
|  |  | FAVEAANYQDTIGRL [Vimentin 351 WT] | IC50 (HLA-DRB1*01:01; wild-type (unmodified Arg) 15-mer peptide, purified HLA-DRB1*01:01, read-out: DRB1*01:01 binding capacity, WT peptide (IC50 nM)): 611 nM; IC50 (HLA-DRB1*04:01; wild-type (unmodified Arg) 15-mer peptide, purified HLA-DRB1*04:01, read-out: DRB1*04:01 binding capacity, WT peptide (IC50 nM)): 564 nM |
|  |  | ERKVESLQEEIAFLK [Vimentin 221 WT] | IC50 (HLA-DRB1*01:01; [5]): 103 nM; IC50 (HLA-DRB1*04:01; [6]): > 40000 nM |
| 220 | > 40000 | CSCC[C@H](NC(=O)[C@@H](NC(=O)CNC(=O)[C@@H](N)CC(C)C)C(C)C)C(=O)N[C@@H](CCC(N)=O)C(=O)NCC(=O)N1CCC[C@H]1C(=O)N[C@@H](CCSC)C(=O)NCC(=O)N1CCC[C@H]1C(=O)N[C@@H](CCSC)C(=O)NCC(=O)N1CCC[C@H]1C(=O)N[C@@H](CCCNC(N)=O)C(=O)NCC(=O)O [LGVMQGPMGPMGPXG] (H-LGVMQGPMGPMGP[Cit]G-OH) |  |
|  |  | CC(C)C[C@H](NC(=O)[C@H](CO)NC(=O)[C@H](CCCNC(=N)N)NC(=O)[C@H](CO)NC(=O)[C@@H](NC(=O)[C@H](CO)NC(=O)[C@@H]1CCCN1)[C@@H](C)O)C(=O)N[C@@H](Cc1ccc(O)cc1)C(=O)N[C@@H](C)C(=O)N[C@@H](CO)C(=O)N[C@@H](CO)C(=O)N1CCC[C@H]1C(=O)NCC(=O)NCC(=O)N[C@H](C(=O)O)C(C)C [Vimentin 46 WT] | IC50 (HLA-DRB1*01:01; [5]): 290 nM; IC50 (HLA-DRB1*04:01; [6]): 1050 nM |
| 10500 | > 40000 | CC(C)C[C@H](NC(=O)CNC(=O)[C@@H]1CCCN1C(=O)[C@H](Cc1ccccc1)NC(=O)CNC(=O)[C@H](CCCNC(N)=O)NC(=O)[C@H](CCC(=O)O)NC(=O)CNC(=O)[C@H](CCCNC(=N)N)NC(=O)[C@H](CCC(N)=O)NC(=O)CNC(=O)[C@@H]1CCCN1)C(=O)N1CCC[C@H]1C(=O)NCC(=O)N1CCC[C@H]1C(=O)O [PGQRGEXGFPGLPGP] (H-PGQRGE[Cit]GFPGLPGP-OH) |  |
| 783 | > 40000 | CC(C)C[C@H](NC(=O)CNC(=O)[C@H](CCCNC(N)=O)NC(=O)[C@H](CCC(=O)O)NC(=O)CNC(=O)[C@@H]1CCCN1C(=O)[C@H](CCC(=O)O)NC(=O)CNC(=O)[C@H](C)N)C(=O)N[C@@H](CCCCN)C(=O)NCC(=O)N[C@@H](Cc1c[nH]cn1)C(=O)N[C@@H](CCCNC(=N)N)C(=O)NCC(=O)N[C@@H](Cc1ccccc1)C(=O)O [AGEPGEXGLKGHRGF] (H-AGEPGE[Cit]GLKGHRGF-OH) |  |
